Data reported in article PMC6150365, “Simultaneous Determination of Seven Components in Rat Plasma by the UPLC-MS/MS Method and Application of Pharmacokinetic Studies to SimiaoYong’an Decoction” (Molecules : A Journal of Synthetic Chemistry and Natural …, 2017).

Assay: Pharmacokinetic study in rats after oral administration of SYD extract and its single and combined TCM extracts (UPLC-MS/MS of plasma)
Details: male, Sprague-Dawley, rat, plasma, po, n = 6; for AUC(0-t) / AUC(0-inf) / Cmax / MRT last / MRT inf / Tmax: rat plasma; for MRT last: MRT(0–t); for MRT inf: MRT(0–∞); for half-life: t1/2, rat plasma
[1] = 1.29 g/kg, oral AS extract 1.29 g/kg
[2] = 2.14 g·kg^−1 (extract), oral LJ + GU extract
[3] = 2.15 g/kg, oral LJ extract 2.15 g/kg
[4] = 2.43 g/kg, oral AS + GU extract 2.43 g/kg
[5] = 3.29 g·kg^−1 (extract), oral LJ + AS extract
[6] = 3.29 g·kg^−1 extract, oral LJ + AS extract
[7] = 4.5 g·kg^−1 (extract), oral LJ + SN extract
[8] = 4.5 g·kg^−1 extract, oral LJ + SN extract
[9] = 4.73 g/kg, oral LJ + SN + GU extract 4.73 g/kg
[10] = 5.43 g/kg, oral LJ + SN + AS extract 5.43 g/kg
[11] = 8.25 g/kg, oral SYD extract 8.25 g/kg

Description: Pieces of LJ, SN, AS and GU were weighed according to the proportion of 3:3:2:1 with appropriate amounts. The mixed pieces were crushed and decocted two times (60 min each time) with water (1:10 w/v) after being soaked for 60 min. The decoctions were then combined and condensed to the concentration of 0.5 g/mL, after which 95% ethanol was slowly added to the concentrate until a final ethanol concentration of 70% was reached. The SYD solution was set at room temperature overnight and then was filtered. The solvent was recovered, and the residue was dried under reduced pressure. A certain amount of the water extract of SYD was weighed and then dissolved with purified water for intragastric (oral) administration solution. The single herbs and different combination groups such as LJ, SN, AS, GU, LJ + SN, LJ + AS, LJ + GU, SN + AS, SN + GU, AS + GU, LJ + SN + AS, LJ + SN + GU, LJ + AS + GU and SN + AS + GU were prepared according to the procedure of SYD.
Male Sprague-Dawley (SD) rats (body weight 250 ± 10 g) were supplied by the SPF (Beijing) Biotechnology Co., Ltd. (Certificate No.: SCXK 2016-0002, Beijing, China). The animals were maintained in controlled conditions (temperature 20–25 °C, relative humidity 55–60% and 12-h light/12-h dark cycle) with free access to standard laboratory food and water for seven days of acclimation and then fasted for 12 h before each experiment but allowed to drink freely during this time.
Ninety male SD rats were randomly separated into 15 groups and administered a dosage of extract via gastric gavage once per day; detailed information about the oral daily dose of SYD extract and the corresponding single and combined TCMs (LJ, SN, AS, GU, LJ + SN, LJ + AS, LJ + GU, SN + AS, SN + GU, AS + GU, LJ + SN + AS, LJ + SN + GU, LJ + AS + GU, SN + AS + GU and SYD) is listed in Table 4.
Each plasma sample (200 μL) with 50 μL IS solution added was spiked into 100 μL 1% formic acid distilled water solution and then vortexed for 1 min. Protein was precipitated by adding 600 μL of methanol to the mixture. After being vortexed and sonicated, the samples were centrifuged at 25,000 r/min, 4 °C for 10 min. The supernatant of each sample was transferred to a new 2-mL centrifuge tube and evaporated to dryness by N2 at 40 °C. Finally, the residue was dissolved in 100 μL methanol–water (1:1, v/v), followed by centrifugation at 30,000 r/min, 4 °C for 10 min, and 10-μL supernatant aliquots were injected into the UPLC-MS/MS system for analysis.
The SYD was decomposed into 15 groups of compatibility combinations (LJ, SN, AS, GU, LJ + SN, LJ + AS, LJ + GU, SN + AS, SN + GU, AS + GU, LJ + SN + AS, LJ + SN + GU, LJ + AS + GU, SN + AS + GU and SYD). The 15 combinations were weighed according to the proportion of 3:3:2:1 with appropriate amounts and prepared by the method described in “Section 3.2”. Six male SD rats (body weight 250 ± 10 g) of each compatibility group were used in the pharmacokinetic study. After 12-h fast, rats of the different groups were orally administered the respective extract dissolved in saline (Table 4). Venous blood (0.45 mL) was obtained from the orbit vein and collected in heparin-pretreated polypropylene centrifuge tubes at 0.083 h, 0.17 h, 0.25 h, 0.50 h, 0.75 h, 1.0 h, 1.5 h, 2.0 h, 3.0 h, 4.0 h, 6.0 h, 8.0, 12 h and 24 h post-dose. The plasma was separated by centrifugation at 8000 r/min for 10 min and then stored at −20 °C until analysis. The amount of each analyte in the plasma was estimated by UPLC-MS/MS analysis as described in Section 3.5.
Non-compartmental methods using Phoenix WinNonlin 7.0 software provided by the Beijing University of Chinese Medicine were used to analyze plasma concentration versus time profiles and to estimate the following pharmacokinetic parameters: terminal elimination half-lives (t1/2), area under the plasma concentration versus time curve from zero to last sampling time (AUC), and the mean residence time (MRT).

SMILES: O=C(/C=C/c1ccc(O)c(O)c1)O[C@@H]1C[C@](O)(C(=O)O)C[C@@H](O)[C@H]1O [Chlorogenic acid, chlorogenic acid]
- AUC(0-t) [1]: 1.36 ± 0.12 µg·h/mL
- AUC(0-inf) [1]: 2.13 ± 0.67 µg·h/mL
- Cmax [1]: 0.39 ± 0.11 µg/mL
- MRT last [1]: 1.56 ± 0.67 h
- MRT inf [1]: 4.28 ± 2.23 h
- Tmax [1]: 0.89 ± 0.33 h
- half-life [1]: 3.54 ± 0.98 h
- AUC(0-inf) [2]: 2.93 ± 1 µg·h/mL
- Cmax [2]: 1.07 ± 0.19 µg/mL
- MRT last [2]: 3.85 ± 0.88 h
- MRT inf [2]: 65 ± 64.6 h
- Tmax [2]: 1.18 ± 0.78 h
- half-life [2]: 8.15 ± 2.49 h
- AUC(0-t) (2.14 g·kg^−1 extract, oral LJ + GU extract): 1.78 ± 0.29 µg·h/mL
- AUC(0-t) [3]: 3.94 ± 2.12 µg·h/mL
- AUC(0-inf) [3]: 5.04 ± 2.98 µg·h/mL
- Cmax [3]: 2.41 ± 0.83 µg/mL
- MRT last [3]: 3.12 ± 0.75 h
- MRT inf [3]: 24.7 ± 8.81 h
- Tmax [3]: 1.11 ± 0.74 h
- half-life [3]: 9.39 ± 2.87 h
- AUC(0-t) [4]: 1.15 ± 0.34 µg·h/mL
- AUC(0-inf) [4]: 1.98 ± 0.45 µg·h/mL
- Cmax [4]: 0.29 ± 0.21 µg/mL
- MRT last [4]: 1.78 ± 0.39 h
- MRT inf [4]: 3.36 ± 2 h
- Tmax [4]: 0.55 ± 0.48 h
- half-life [4]: 2.78 ± 0.53 h
- Cmax [5]: 1.67 ± 0.48 µg/mL
- MRT last [5]: 3.17 ± 0.75 h
- MRT inf [5]: 37.6 ± 36.1 h
- Tmax [5]: 1.36 ± 0.69 h
- half-life [5]: 7.14 ± 1.59 h
- AUC(0-t) [6]: 2.82 ± 0.75 µg·h/mL
- AUC(0-inf) [6]: 3.77 ± 1.22 µg·h/mL
- MRT last [7]: 3.48 ± 0.86 h
- MRT inf [7]: 46.8 ± 43.4 h
- Tmax [7]: 1.36 ± 1.03 h
- half-life [7]: 7.82 ± 2.6 h
- AUC(0-t) [8]: 2.8 ± 1.16 µg·h/mL
- AUC(0-inf) [8]: 4.25 ± 2.31 µg·h/mL
- Cmax [8]: 1.74 ± 0.75 µg/mL
- AUC(0-t) [9]: 2.19 ± 0.48 µg·h/mL
- AUC(0-inf) [9]: 3.41 ± 0.64 µg·h/mL
- Cmax [9]: 1.28 ± 0.51 µg/mL
- MRT last [9]: 3.44 ± 0.29 h
- MRT inf [9]: 69.3 ± 73.6 h
- half-life [9]: 8.34 ± 1.07 h
- AUC(0-t) [10]: 2.55 ± 0.64 µg·h/mL
- AUC(0-inf) [10]: 3.69 ± 0.49 µg·h/mL
- Cmax [10]: 1.38 ± 0.37 µg/mL
- MRT last [10]: 3.19 ± 0.32 h
- MRT inf [10]: 59.5 ± 63.2 h
- half-life [10]: 6.73 ± 1.7 h
- AUC(0-t) [11]: 2.54 ± 0.28 µg·h/mL
- AUC(0-inf) [11]: 3.65 ± 0.82 µg·h/mL
- Cmax [11]: 1.22 ± 0.08 µg/mL
- MRT last [11]: 3.28 ± 0.5 h
- MRT inf [11]: 52.6 ± 53.8 h
- half-life [11]: 8.08 ± 1.67 h
- half-life ([…], oral SN + AS + GU extract […]): 7.95 ± 2.46 h
